Measured values published in patent US11780839B2, “Compounds for treating Huntington's disease” (PTC THERAPEUTICS, INC., priority 2018, dated 2023).

Test system: Endogenous Huntingtin Protein
Assay: Endogenous Huntingtin Protein Assay (ELISA-based Meso Scale Discovery electrochemiluminescence)
Type: cell-based
Settings: MSD electrochemiluminescence, Table 1
Protocol: Compounds of Formula (I) or Formula (II) were tested using the Meso Scale Discovery (MSD) Assay provided in International Application No. PCT/US2016/066042, filed on Dec. 11, 2016 and claiming priority to U.S. Provisional Application 62/265,652 filed on Dec. 10, 2015, the entire contents of which are incorporated herein by reference.
The Endogenous Huntingtin Protein assay used in Example 1 was developed using the ELISA-based MSD electrochemiluminescence assay platform.
Endogenous Huntingtin Protein Assay
Meso Scale Discovery (MSD) 96-well or 384-well plates were coated overnight at 4° C. with MW1 (expanded polyglutamine) or MAB2166 monoclonal antibody (for capture) at a concentration of 1 μg/mL in PBS (30 μL per well). Plates were then washed three times with 300 μL wash buffer (0.05% Tween-20 in PBS) and blocked (100 μL blocking buffer; 5% BSA in PBS) for 4-5 hours at room temperature with rotational shaking and then washed three times with wash buffer.
Samples (25 μL) were transferred to the antibody-coated MSD plate and incubated overnight at 4° C. After removal of the lysates, the plate was washed three times with wash buffer, and 25 μL of #5656S (Cell signaling; rabbit monoclonal) secondary antibody (diluted to 0.25 μg/mL in 0.05% Tween-20 in blocking buffer) was added to each well and incubated with shaking for 1 Hour at room temperature. Following incubation with the secondary antibody, the wells were rinsed with wash buffer after which 25 μL of goat anti-rabbit SULFO TAG secondary detection antibody (required aspect of the MSD system) (diluted to 0.25 μg/mL in 0.05% Tween-20 in blocking buffer) was added to each well and incubated with shaking for 1 hour at room temperature. After rinsing three times with wash buffer, 150 μL of read buffer T with surfactant (MSD) were added to each empty well, and the plate was imaged on a SI 6000 imager (MSD) according to manufacturers' instructions provided for 96- or 384-well plates.

Structure (SMILES)	IC50 [nM]
CN(c1ncc(-c2ccc(-c3ncco3)cc2O)nn1)C1CC(C)(C)NC(C)(C)C1 [Cpd 7, 2-{3-[methyl(2,2,6,6-tetramethylpiperidin-4-yl)amino]-1,2,4-triazin-6-yl}-5-(1,3-oxazol-2-yl)phenol]	≤ 100
CN(c1ncc(-c2ccc(-c3ccc4c(nnn4C)n3)cc2O)nn1)C1CC(C)(C)NC(C)(C)C1 [Cpd 186, 2-{3-[methyl(2,2,6,6-tetramethylpiperidin-4-yl)amino]-1,2,4-triazin-6-yl}-5-(1-methyl-1H-[1,2,3]triazolo[4,5-b]pyridin-5-yl)phenol]	≤ 100
Cc1cnn(-c2ccc(-c3cnc(N(C)C4CC(C)(C)NC(C)(C)C4)nn3)c(O)c2)n1 [Cpd 69, 2-{3-[methyl(2,2,6,6-tetramethylpiperidin-4-yl)amino]-1,2,4-triazin-6-yl}-5-(4-methyl-2H-1,2,3-triazol-2-yl)phenol]	≤ 100
CC1(C)CC(Nc2ncc(-c3ccc(-n4ccnc4)cc3O)nn2)CC(C)(C)N1 [Cpd 273, 5-(1H-imidazol-1-yl)-2-{3-[(2,2,6,6-tetramethylpiperidin-4-yl)amino]-1,2,4-triazin-6-yl}phenol]	≤ 100
Cc1cnc(-c2ccc(-c3cnc(N(C)C4CC(C)(C)NC(C)(C)C4)nn3)c(O)c2)nc1 [Cpd 128, 5-(5-methylpyrimidin-2-yl)-2-{3-[methyl(2,2,6,6-tetramethylpiperidin-4-yl)amino]-1,2,4-triazin-6-yl}phenol]	100 to 500
Cc1cc(-c2ccc(-c3cnc(N(C)C4CC(C)(C)NC(C)(C)C4)nn3)c(O)c2)cnn1 [Cpd 61, 5-(6-methylpyridazin-4-yl)-2-{3-[methyl(2,2,6,6-tetramethylpiperidin-4-yl)amino]-1,2,4-triazin-6-yl}phenol]	≤ 100
COc1cnc(-c2ccc(-c3cnc(N(C)C4CC(C)(C)NC(C)(C)C4)nn3)c(O)c2)nn1 [Cpd 144, 5-(6-methoxy-1,2,4-triazin-3-yl)-2-{3-[methyl(2,2,6,6-tetramethylpiperidin-4-yl)amino]-1,2,4-triazin-6-yl}phenol]	≤ 100
CC1(C)CC(Oc2ncc(-c3ccc(-n4nccn4)cc3O)nn2)CC(C)(C)N1 [Cpd 122, 2-{3-[(2,2,6,6-tetramethylpiperidin-4-yl)oxy]-1,2,4-triazin-6-yl}-5-(2H-1,2,3-triazol-2-yl)phenol]	100 to 500
Cc1ncn(-c2ccc(-c3cnc(N(C)C4CC(C)(C)NC(C)(C)C4)nn3)c(O)c2)n1 [Cpd 51, 2-{3-[methyl(2,2,6,6-tetramethylpiperidin-4-yl)amino]-1,2,4-triazin-6-yl}-5-(3-methyl-1H-1,2,4-triazol-1-yl)phenol]	> 500
CC1(C)C[C@H](Nc2ncc(-c3ccc(-c4ncns4)cc3O)nn2)[C@H](F)C(C)(C)N1 [Cpd 292, 2-(3-{[(3S,4S)-3-fluoro-2,2,6,6-tetramethylpiperidin-4-yl]amino}-1,2,4-triazin-6-yl)-5-(1,2,4-thiadiazol-5-yl)phenol]	≤ 100
Cn1nnc2nc(-c3ccc(-c4cnc(N5CCC(NC(C)(C)C)C5)nn4)c(O)c3)ccc21 (centres unmarked) [Cpd 215, 2-{3-[3-(tert-butylamino)pyrrolidin1-yl]-1,2,4-triazin-6-yl}-5-(1-methyl-1H-[1,2,3]triazolo[4,5-b]pyridin-5-yl)phenol]	100 to 500
Oc1cc(-c2cn[nH]c2)ccc1-c1cnc(N2CCC(C3CCCN3)C2)nn1 (centres unmarked) [Cpd 387, 2-[3-([2,3’-bipyrrolidin]-l’-yl)-1,2,4-triazin-6-yl]-5-(1H-pyrazol-4-yl)phenol]	≤ 100
Oc1cc(-c2cn[nH]c2)ccc1-c1cnc(N2CCC(NC34CC5CC(CC(C5)C3)C4)C2)nn1 (centres unmarked) [Cpd 157, 2-(3-{3-[(adamantan-1-yl)amino]pyrrolidin-1-yl}-1,2,4-triazin-6-yl)-5-(1H-pyrazol-4-yl)phenol]	100 to 500
Cc1cc(-c2ccc(-c3cnc(N(C)C4CC(C)(C)NC(C)(C)C4)nn3)c(O)c2)nc(O)c1N [Cpd 168, 3-amino-6-(3-hydroxy-4-{3-[methyl(2,2,6,6-tetramethylpiperidin-4-yl)amino]-1,2,4-triazin-6-yl}phenyl)-4-methylpyridin-2-ol]	100 to 500
CN(c1ncc(-c2ccc(-c3cc(F)ccn3)cc2O)nn1)C1CC(C)(C)NC(C)(C)C1 [Cpd 98, 5-(4-fluoropyridin-2-yl)-2-{3-[methyl(2,2,6,6-tetramethylpiperidin-4-yl)amino]-1,2,4-triazin-6-yl}phenol]	100 to 500
CN(c1ncc(-c2ccc(-c3cn[nH]c3)cc2O)nn1)C1C[C@H]2CCC[C@@H](C1)N2 (stereo partly drawn) [Cpd 22, 2-(3-{[(1R,3S,5S)-9-azabicyclo[3.3.1]nonan-3-yl](methyl)amino}-1,2,4-triazin-6-yl)-5-(1H-pyrazol-4-yl)phenol]	≤ 100

Structure (SMILES)	IC50 [nM]
Oc1cc(-c2cn[nH]c2)ccc1-c1cnc(N2CCC(NC3CC3)C2)nn1 (centres unmarked) [Cpd 137, 2-{3-[3-(cyclopropylamino)pyrrolidin-1-yl]-1,2,4-triazin-6-yl}-5-(1H-pyrazol-4-yl)phenol]	≤ 100
CN(c1cnc(-c2ccc(-c3ccc4c(cnn4C)c3)cc2O)nn1)C1CC(C)(C)NC(C)(C)C1 [Cpd 342, 5-(1-methyl-1H-indazol-5-yl)-2-{6-[methyl(2,2,6,6-tetramethylpiperidin-4-yl)amino]-1,2,4-triazin-3-yl}phenol]	100 to 500
CC(C)NC1CCN(c2ncc(-c3ccc(-n4cc(F)cn4)cc3O)nn2)C1 (centres unmarked) [Cpd 338, 5-(4-fluoro-1H-pyrazol-1-yl)-2-(3-{3-[(propan-2-yl)amino]pyrrolidin-1-yl}-1,2,4-triazin-6-yl)phenol]	100 to 500
CNC1CCN(c2ncc(-c3ccc(-c4ncns4)cc3O)nn2)C1 (centres unmarked) [Cpd 269, 2-{3-[3-(methylamino)pyrrolidin-1-yl]-1,2,4-triazin-6-yl}-5-(1,2,4-thiadiazol-5-yl)phenol]	100 to 500
CN(c1ncc(-c2ccc(-n3ncc4ccncc43)cc2O)nn1)C1CC(C)(C)NC(C)(C)C1 [Cpd 381, 2-{3-[methyl(2,2,6,6-tetramethylpiperidin-4-yl)amino]-1,2,4-triazin-6-yl}-5-(1H-pyrazolo[3,4-c]pyridin-1-yl)phenol]	≤ 100
CNC1CCN(c2ncc(-c3ccc(-n4nccn4)cc3O)nn2)C1 (centres unmarked) [Cpd 218, 2-{3-[3-(methylamino)pyrrolidin-1-yl]-1,2,4-triazin-6-yl}-5-(2H-1,2,3-triazol-2-yl)phenol]	100 to 500
CN1CCC2(CC1)CN(c1ncc(-c3ccc(-c4cnn(C)c4)cc3O)nn1)C2 [Cpd 226, 2-[3-(7-methyl-2,7-diazaspiro[3.5]nonan-2-yl)-1,2,4-triazin-6-yl]-5-(1-methyl-1H-pyrazol-4-yl)phenol]	≤ 100
Cn1ncc2cc(-c3ccc(-c4cnc(N5CCC(NC(C)(C)C)C5)nn4)c(O)c3)ccc21 (stereo not drawn) [Cpd 208, 2-{3-[3-(tert-butylamino)pyrrolidin-l-yl]-1,2,4-triazin-6-yl}-5-(1-methyl-1H-indazol-5-yl)phenol]	100 to 500
COc1cc(-c2ccc(-c3cnc(N(C)C4CC(C)(C)NC(C)(C)C4)nn3)c(O)c2)ccn1 [Cpd 3, 5-(2-methoxypyridin-4-yl)-2-{3-[methyl(2,2,6,6-tetramethylpiperidin-4-yl)amino]-1,2,4-triazin-6-yl}phenol]	≤ 100
CN(c1ncc(-c2ccc(-c3cc(F)c4[nH]cnc4c3)cc2O)nn1)C1CC(C)(C)NC(C)(C)C1 [Cpd 280, 5-(7-fluoro-1H-benzimidazol-5-yl)-2-{3-[methyl(2,2,6,6-tetramethylpiperidin-4-yl)amino]-1,2,4-triazin-6-yl}phenol]	≤ 100
CC1CC(NC(C)(C)C)CN1c1ncc(-c2ccc(-c3cn[nH]c3)cc2O)nn1 (centres unmarked) [Cpd 171, 2-{3-[4-(tert-butylamino)-2-methylpyrrolidin-1-yl]-1,2,4-triazin-6-yl}-5-(1H-pyrazol-4-yl)phenol]	≤ 100
CN1CCC2(CC1)CN(c1ncc(-c3ccc(-c4nnn(C)n4)cc3O)nn1)C2 [Cpd 251, 2-[3-(7-methyl-2,7-diazaspiro[3.5]nonan-2-yl)-1,2,4-triazin-6-yl]-5-(2-methyl-2H-tetrazol-5-yl)phenol]	100 to 500
CN(C)CC1CCN(c2ncc(-c3ccc(-c4cn[nH]c4)cc3O)nn2)C1 (centres unmarked) [Cpd 410, 2-(3-{3-[(dimethylamino)methyl]pyrrolidin-1-yl}-1,2,4-triazin-6-yl)-5-(1H-pyrazol-4-yl)phenol]	≤ 100
CN(c1ncc(-c2ccc(-c3cccnc3)cc2O)nn1)C1CC(C)(C)NC(C)(C)C1 [Cpd 70, 2-{3-[methyl(2,2,6,6-tetramethylpiperidin-4-yl)amino]-1,2,4-triazin-6-yl}-5-(pyridin-3-yl)phenol]	100 to 500
Oc1cc(-c2cn[nH]c2)ccc1-c1cnc(N2CCC(CNC3CCOCC3F)C2)nn1 (centres unmarked) [Cpd 403, 2-[3-(3-{[(3-fluorooxan-4-yl)amino]methyl}pyrrolidin-1-yl)-1,2,4-triazin-6-yl]-5-(1H-pyrazol-4-yl)phenol]	≤ 100
CN(c1ncc(-c2ccc(-c3cnco3)cc2O)nn1)C1CC(C)(C)NC(C)(C)C1 [Cpd 91, 2-{3-[methyl(2,2,6,6-tetramethylpiperidin-4-yl)amino]-1,2,4-triazin-6-yl}-5-(1,3-oxazol-5-yl)phenol]	≤ 100
